# Assay results: patent US9546156B2, “N-bicyclic aryl,N'-pyrazolyl urea, thiourea, guanidine cyanoguanidine compounds as TrkA kinase inhibitors” (Array BioPharma Inc., priority 2012, dated 2017)
# Assays:
# Test in all cases: Off-target kinase profiling (KinaseProfiler)
# Type in all cases: biochemical
# Details in all cases: 10 μM, ATP near Km
# AKT2 = target: T1, AKT2 (Homo sapiens, UniProt P31751)
# T1 construct: purchased Millipore, Inc. (KinaseProfiler service)
# Protocol: (§1) A representative compound (Example 16) of the invention was tested for off-target kinase activity at a concentration of 10 μM by Millipore, Inc. in their KinaseProfiler™ service against all the kinases available in their full kinase panel. The compound was run in duplicate at a concentration of ATP near the Km for each individual kinase according to Millipore's specifications. The results are shown in Table B. Data are reported as percent of control (POC) and are the average of the two replicates.
# p38delta = target: T2, p38delta (Homo sapiens, UniProt O15264)
# T2 construct: purchased Millipore, Inc. (KinaseProfiler service)
# Protocol: as §1
# PKCeta = target: T3, PKCeta (Homo sapiens, UniProt P24723)
# T3 construct: purchased Millipore, Inc. (KinaseProfiler service)
# Protocol: as §1
# CDK5/p25 = target: T4, CDK5/p25 (Homo sapiens, UniProt Q00535)
# T4 construct: purchased Millipore, Inc. (KinaseProfiler service)
# Protocol: as §1
# Haspin = target: T5, Haspin (Homo sapiens, UniProt Q8TF76)
# T5 construct: purchased Millipore, Inc. (KinaseProfiler service)
# Protocol: as §1
# TNK2 = target: T6, TNK2 (Homo sapiens, UniProt Q07912)
# T6 construct: purchased Millipore, Inc. (KinaseProfiler service)
# Protocol: as §1
# MST1 = target: T7, MST1 (Homo sapiens, UniProt Q13043)
# T7 construct: purchased Millipore, Inc. (KinaseProfiler service)
# Protocol: as §1
# ROCK-I = target: T8, ROCK-I (Homo sapiens, UniProt Q13464)
# T8 construct: purchased Millipore, Inc. (KinaseProfiler service)
# Protocol: as §1
# PKCtheta = target: T9, PKCtheta (Homo sapiens, UniProt Q04759)
# T9 construct: purchased Millipore, Inc. (KinaseProfiler service)
# Protocol: as §1
# p70S6K = target: T10, p70S6K (Homo sapiens, UniProt P23443)
# T10 construct: purchased Millipore, Inc. (KinaseProfiler service)
# Protocol: as §1
# HIPK3 = target: T11, HIPK3 (Homo sapiens, UniProt Q9H422)
# T11 construct: purchased Millipore, Inc. (KinaseProfiler service)
# Protocol: as §1
# Rse = target: T12, Rse (Homo sapiens, UniProt Q06418)
# T12 construct: purchased Millipore, Inc. (KinaseProfiler service)
# Protocol: as §1
# TSSK1 = target: T13, TSSK1 (Homo sapiens, UniProt Q9BXA7)
# T13 construct: purchased Millipore, Inc. (KinaseProfiler service)
# Protocol: as §1
# ULK2 = target: T14, ULK2 (Homo sapiens, UniProt Q8IYT8)
# T14 construct: purchased Millipore, Inc. (KinaseProfiler service)
# Protocol: as §1
# PDK1 = target: T15, PDK1 (Homo sapiens, UniProt O15530)
# T15 construct: purchased Millipore, Inc. (KinaseProfiler service)
# T15 sequence (O15530 whole entry): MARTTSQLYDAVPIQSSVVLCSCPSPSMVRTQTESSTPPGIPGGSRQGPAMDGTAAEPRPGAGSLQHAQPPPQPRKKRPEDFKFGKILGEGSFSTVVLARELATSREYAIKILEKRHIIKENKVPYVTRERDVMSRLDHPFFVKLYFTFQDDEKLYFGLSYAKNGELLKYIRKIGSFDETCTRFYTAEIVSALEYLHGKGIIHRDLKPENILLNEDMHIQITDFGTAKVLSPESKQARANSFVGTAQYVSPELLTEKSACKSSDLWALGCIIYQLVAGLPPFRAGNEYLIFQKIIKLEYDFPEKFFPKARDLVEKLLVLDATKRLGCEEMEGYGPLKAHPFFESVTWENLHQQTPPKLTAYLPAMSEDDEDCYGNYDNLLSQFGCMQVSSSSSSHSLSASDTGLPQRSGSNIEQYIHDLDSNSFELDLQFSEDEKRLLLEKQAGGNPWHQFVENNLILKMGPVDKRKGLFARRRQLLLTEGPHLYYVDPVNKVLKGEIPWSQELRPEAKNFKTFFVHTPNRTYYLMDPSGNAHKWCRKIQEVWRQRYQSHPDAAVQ
# Protocol: as §1
# mTOR/FKBP12 = target: T16, mTOR/FKBP12 (Homo sapiens, UniProt P42345)
# T16 construct: purchased Millipore, Inc. (KinaseProfiler service)
# Protocol: as §1
# Rsk1 = target: T17, Rsk1 (Homo sapiens, UniProt Q15418)
# T17 construct: purchased Millipore, Inc. (KinaseProfiler service)
# Protocol: as §1
# MKK6 = target: T18, MKK6 (Homo sapiens, UniProt P52564)
# T18 construct: purchased Millipore, Inc. (KinaseProfiler service)
# T18 sequence (P52564 whole entry): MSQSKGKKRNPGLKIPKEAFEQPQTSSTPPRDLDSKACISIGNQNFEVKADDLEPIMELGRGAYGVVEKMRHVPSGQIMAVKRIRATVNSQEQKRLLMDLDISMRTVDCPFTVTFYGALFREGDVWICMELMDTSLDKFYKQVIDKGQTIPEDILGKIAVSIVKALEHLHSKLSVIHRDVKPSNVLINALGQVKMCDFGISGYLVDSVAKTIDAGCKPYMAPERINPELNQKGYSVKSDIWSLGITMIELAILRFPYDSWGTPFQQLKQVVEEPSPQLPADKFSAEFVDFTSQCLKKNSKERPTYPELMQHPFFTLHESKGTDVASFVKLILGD
# Protocol: as §1
# CAMK1 = target: T19, CAMK1 (Homo sapiens, UniProt Q14012)
# T19 construct: purchased Millipore, Inc. (KinaseProfiler service)
# Protocol: as §1
# MAPKAP-K2 = target: T20, MAPKAP-K2 (Homo sapiens, UniProt P49137)
# T20 construct: purchased Millipore, Inc. (KinaseProfiler service)
# Protocol: as §1
# CDK2/cyclinA = target: T21, CDK2/cyclinA (Homo sapiens, UniProt P24941)
# T21 construct: purchased Millipore, Inc. (KinaseProfiler service)
# Protocol: as §1
# Axl = target: T22, Axl (Homo sapiens, UniProt P30530)
# T22 construct: purchased Millipore, Inc. (KinaseProfiler service)
# Protocol: as §1
# BrSK1 = target: T23, BrSK1 (Homo sapiens, UniProt Q8TDC3)
# T23 construct: purchased Millipore, Inc. (KinaseProfiler service)
# Protocol: as §1
# DDR2 = target: T24, DDR2 (Homo sapiens, UniProt Q16832)
# T24 construct: purchased Millipore, Inc. (KinaseProfiler service)
# Protocol: as §1
# DRAK1 = target: T25, DRAK1 (Homo sapiens, UniProt Q9UEE5)
# T25 construct: purchased Millipore, Inc. (KinaseProfiler service)
# Protocol: as §1
# p38gamma = target: T26, p38gamma (Homo sapiens, UniProt P53778)
# T26 construct: purchased Millipore, Inc. (KinaseProfiler service)
# T26 sequence (P53778 whole entry): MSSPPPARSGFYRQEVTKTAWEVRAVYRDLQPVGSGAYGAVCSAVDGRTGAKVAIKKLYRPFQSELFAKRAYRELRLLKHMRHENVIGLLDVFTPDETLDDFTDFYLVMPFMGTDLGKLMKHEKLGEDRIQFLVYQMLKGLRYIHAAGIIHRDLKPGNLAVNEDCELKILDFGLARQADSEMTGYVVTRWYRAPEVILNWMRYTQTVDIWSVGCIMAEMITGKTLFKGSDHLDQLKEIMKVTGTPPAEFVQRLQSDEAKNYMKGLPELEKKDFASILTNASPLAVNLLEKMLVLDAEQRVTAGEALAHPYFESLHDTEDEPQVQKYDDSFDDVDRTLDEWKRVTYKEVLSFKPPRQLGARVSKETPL
# Protocol: as §1
# FGFR3 = target: T27, FGFR3 (Homo sapiens, UniProt P22607)
# T27 construct: purchased Millipore, Inc. (KinaseProfiler service)
# Protocol: as §1
# MSK2 = target: T28, MSK2 (Homo sapiens, UniProt O75676)
# T28 construct: purchased Millipore, Inc. (KinaseProfiler service)
# Protocol: as §1
# GRK6 = target: T29, GRK6 (Homo sapiens, UniProt P43250)
# T29 construct: purchased Millipore, Inc. (KinaseProfiler service)
# Protocol: as §1
# PKCdelta = target: T30, PKCdelta (Homo sapiens, UniProt Q05655)
# T30 construct: purchased Millipore, Inc. (KinaseProfiler service)
# Protocol: as §1
# PDGFRbeta = target: T31, PDGFRbeta (Homo sapiens, UniProt P09619)
# T31 construct: purchased Millipore, Inc. (KinaseProfiler service)
# Protocol: as §1
# PAK5 = target: T32, PAK5 (Homo sapiens, UniProt Q9P286)
# T32 construct: purchased Millipore, Inc. (KinaseProfiler service)
# Protocol: as §1
# IKKalpha = target: T33, IKKalpha (Homo sapiens, UniProt O15111)
# T33 construct: purchased Millipore, Inc. (KinaseProfiler service)
# T33 sequence (O15111 whole entry): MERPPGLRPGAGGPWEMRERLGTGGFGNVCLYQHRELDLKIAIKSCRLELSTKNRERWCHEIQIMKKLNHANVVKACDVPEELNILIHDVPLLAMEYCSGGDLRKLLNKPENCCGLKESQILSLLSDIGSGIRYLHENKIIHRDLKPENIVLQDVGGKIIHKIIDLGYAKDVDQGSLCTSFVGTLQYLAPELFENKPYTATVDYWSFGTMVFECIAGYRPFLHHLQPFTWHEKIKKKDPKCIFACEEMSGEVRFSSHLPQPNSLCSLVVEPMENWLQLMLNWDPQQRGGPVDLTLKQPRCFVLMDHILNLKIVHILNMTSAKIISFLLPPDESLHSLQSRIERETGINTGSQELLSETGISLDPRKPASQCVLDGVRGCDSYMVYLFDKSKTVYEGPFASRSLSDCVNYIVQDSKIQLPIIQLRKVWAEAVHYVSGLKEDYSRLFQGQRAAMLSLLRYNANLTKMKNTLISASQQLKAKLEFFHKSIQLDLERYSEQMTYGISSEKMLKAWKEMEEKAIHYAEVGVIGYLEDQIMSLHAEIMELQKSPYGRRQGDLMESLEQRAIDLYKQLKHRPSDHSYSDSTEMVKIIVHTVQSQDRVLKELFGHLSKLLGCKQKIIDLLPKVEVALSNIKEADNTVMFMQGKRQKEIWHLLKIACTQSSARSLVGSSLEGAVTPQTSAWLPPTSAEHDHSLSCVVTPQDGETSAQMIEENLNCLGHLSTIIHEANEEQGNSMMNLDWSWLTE
# Protocol: as §1
# Ros = target: T34, Ros (Homo sapiens, UniProt P08922)
# T34 construct: purchased Millipore, Inc. (KinaseProfiler service)
# T34 sequence (P08922 28-2347): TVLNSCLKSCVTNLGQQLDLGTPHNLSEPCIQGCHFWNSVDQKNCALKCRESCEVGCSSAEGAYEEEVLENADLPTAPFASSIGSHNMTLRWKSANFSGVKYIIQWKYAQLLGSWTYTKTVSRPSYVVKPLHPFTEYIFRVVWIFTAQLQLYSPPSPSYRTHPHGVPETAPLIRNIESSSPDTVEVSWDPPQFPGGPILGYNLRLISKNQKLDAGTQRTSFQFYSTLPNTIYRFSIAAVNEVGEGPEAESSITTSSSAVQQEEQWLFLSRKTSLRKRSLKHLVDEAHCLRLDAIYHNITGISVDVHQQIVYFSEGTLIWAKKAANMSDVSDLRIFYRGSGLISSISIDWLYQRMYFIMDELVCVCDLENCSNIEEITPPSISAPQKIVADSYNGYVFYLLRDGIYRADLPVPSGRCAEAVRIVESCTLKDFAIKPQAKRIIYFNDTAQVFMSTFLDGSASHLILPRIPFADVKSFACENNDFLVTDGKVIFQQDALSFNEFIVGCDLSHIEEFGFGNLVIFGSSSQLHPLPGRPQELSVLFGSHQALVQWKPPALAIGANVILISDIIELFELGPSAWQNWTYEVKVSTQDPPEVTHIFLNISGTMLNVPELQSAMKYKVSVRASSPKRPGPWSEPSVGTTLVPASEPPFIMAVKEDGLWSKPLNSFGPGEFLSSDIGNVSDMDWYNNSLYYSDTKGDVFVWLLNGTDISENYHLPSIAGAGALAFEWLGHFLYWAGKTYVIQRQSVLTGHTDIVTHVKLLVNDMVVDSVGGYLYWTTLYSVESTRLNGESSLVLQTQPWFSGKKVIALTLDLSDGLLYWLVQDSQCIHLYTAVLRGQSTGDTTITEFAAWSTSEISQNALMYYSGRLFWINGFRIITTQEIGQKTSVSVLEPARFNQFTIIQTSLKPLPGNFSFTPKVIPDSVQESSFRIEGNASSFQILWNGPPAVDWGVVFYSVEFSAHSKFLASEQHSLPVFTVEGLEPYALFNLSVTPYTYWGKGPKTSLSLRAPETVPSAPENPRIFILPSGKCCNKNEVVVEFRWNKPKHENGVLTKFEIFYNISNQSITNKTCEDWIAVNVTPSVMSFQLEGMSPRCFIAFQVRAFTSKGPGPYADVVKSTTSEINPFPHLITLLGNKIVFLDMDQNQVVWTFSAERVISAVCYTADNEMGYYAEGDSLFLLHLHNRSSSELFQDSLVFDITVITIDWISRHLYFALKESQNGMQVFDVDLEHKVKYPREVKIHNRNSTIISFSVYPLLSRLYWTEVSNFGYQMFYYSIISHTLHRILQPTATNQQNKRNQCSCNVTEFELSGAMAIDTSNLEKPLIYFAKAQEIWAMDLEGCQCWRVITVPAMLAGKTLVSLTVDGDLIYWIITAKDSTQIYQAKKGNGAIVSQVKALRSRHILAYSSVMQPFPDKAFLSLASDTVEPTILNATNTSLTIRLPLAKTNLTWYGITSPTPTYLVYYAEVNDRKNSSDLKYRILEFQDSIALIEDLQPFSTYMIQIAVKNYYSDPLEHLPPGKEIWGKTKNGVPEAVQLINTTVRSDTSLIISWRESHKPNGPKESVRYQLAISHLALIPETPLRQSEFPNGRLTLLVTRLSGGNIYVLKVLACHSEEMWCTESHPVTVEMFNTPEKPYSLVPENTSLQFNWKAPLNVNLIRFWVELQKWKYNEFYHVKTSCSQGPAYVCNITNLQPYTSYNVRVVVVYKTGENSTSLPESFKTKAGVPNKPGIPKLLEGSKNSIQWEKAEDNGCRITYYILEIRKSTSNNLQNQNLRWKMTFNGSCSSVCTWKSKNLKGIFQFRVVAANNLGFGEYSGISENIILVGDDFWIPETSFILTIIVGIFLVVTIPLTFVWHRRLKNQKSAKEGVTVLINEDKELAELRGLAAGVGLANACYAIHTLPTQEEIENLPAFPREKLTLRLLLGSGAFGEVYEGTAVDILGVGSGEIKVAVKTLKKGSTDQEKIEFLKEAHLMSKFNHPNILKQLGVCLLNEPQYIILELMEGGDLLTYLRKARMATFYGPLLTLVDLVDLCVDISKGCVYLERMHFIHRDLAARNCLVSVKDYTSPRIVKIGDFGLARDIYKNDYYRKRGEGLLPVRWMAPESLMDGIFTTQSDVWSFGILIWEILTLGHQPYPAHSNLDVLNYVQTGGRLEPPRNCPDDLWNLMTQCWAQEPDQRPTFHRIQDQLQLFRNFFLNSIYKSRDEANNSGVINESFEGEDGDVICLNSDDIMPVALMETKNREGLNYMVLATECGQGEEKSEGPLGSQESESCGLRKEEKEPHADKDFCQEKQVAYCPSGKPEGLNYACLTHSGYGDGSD
# Protocol: as §1
# CK1gamma3 = target: T35, CK1gamma3 (Homo sapiens, UniProt Q9Y6M4)
# T35 construct: purchased Millipore, Inc. (KinaseProfiler service)
# Protocol: as §1
# BrSK2 = target: T36, BrSK2 (Homo sapiens, UniProt Q8IWQ3)
# T36 construct: purchased Millipore, Inc. (KinaseProfiler service)
# T36 sequence (Q8IWQ3 whole entry): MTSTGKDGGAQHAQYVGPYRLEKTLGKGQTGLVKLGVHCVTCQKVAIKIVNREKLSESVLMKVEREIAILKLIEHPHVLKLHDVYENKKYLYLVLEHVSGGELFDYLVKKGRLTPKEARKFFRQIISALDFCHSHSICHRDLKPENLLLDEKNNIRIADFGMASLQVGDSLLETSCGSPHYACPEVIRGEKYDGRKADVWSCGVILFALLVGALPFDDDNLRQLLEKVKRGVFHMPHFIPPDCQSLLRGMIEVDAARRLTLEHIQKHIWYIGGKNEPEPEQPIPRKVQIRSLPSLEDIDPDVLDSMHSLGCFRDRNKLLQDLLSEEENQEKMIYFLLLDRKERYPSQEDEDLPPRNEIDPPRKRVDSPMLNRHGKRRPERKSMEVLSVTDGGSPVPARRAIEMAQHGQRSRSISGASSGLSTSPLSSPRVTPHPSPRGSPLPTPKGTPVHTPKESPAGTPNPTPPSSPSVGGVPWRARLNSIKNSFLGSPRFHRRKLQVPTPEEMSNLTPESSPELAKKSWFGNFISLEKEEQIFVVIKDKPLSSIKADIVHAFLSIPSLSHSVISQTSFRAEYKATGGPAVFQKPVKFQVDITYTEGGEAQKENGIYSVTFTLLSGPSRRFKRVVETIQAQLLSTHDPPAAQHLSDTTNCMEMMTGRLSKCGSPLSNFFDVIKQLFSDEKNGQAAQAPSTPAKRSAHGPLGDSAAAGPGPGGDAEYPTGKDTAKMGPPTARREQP
# Protocol: as §1
# Ron = target: T37, Ron (Homo sapiens, UniProt Q04912)
# T37 construct: purchased Millipore, Inc. (KinaseProfiler service)
# Protocol: as §1
# WNK3 = target: T38, WNK3 (Homo sapiens, UniProt Q9BYP7)
# T38 construct: purchased Millipore, Inc. (KinaseProfiler service)
# Protocol: as §1
# IGF-1R Activated = target: T39, IGF-1R Activated (Homo sapiens, UniProt P08069)
# T39 construct: purchased Millipore, Inc. (KinaseProfiler service)
# Protocol: as §1
# TrkA = target: T40, TrkA (Homo sapiens, UniProt P04629)
# T40 construct: purchased Millipore, Inc. (KinaseProfiler service)
# Protocol: as §1
# SIK = target: T41, SIK (Homo sapiens, UniProt P57059)
# T41 construct: purchased Millipore, Inc. (KinaseProfiler service)
# Protocol: as §1
compound,measurement,setting,value
"COCc1ccc2cccc(NC(=O)Nc3c(C)c(-c4cnn(C)c4)nn3-c3ccccc3)c2c1 [Example 16, 1-(1′,4-dimethyl-1-phenyl-1H,1′H-[3,4′-bipyrazol]-5-yl)-3-(7-(methoxymethyl)naphthalen-1-yl)urea]",Avg POC,AKT2,217.5 POC
same,Avg POC,p38delta,121 POC
same,Avg POC,PKCeta,122 POC
same,Avg POC,CDK5/p25,110.5 POC
same,Avg POC,Haspin,137.5 POC
same,Avg POC,TNK2,115 POC
same,Avg POC,MST1,111.5 POC
same,Avg POC,ROCK-I,118 POC
same,Avg POC,PKCtheta,124.5 POC
same,Avg POC,p70S6K,218 POC
same,Avg POC,HIPK3,109.5 POC
same,Avg POC,Rse,120.5 POC
same,Avg POC,TSSK1,104.5 POC
same,Avg POC,ULK2,102 POC
same,Avg POC,PDK1,117.5 POC
same,Avg POC,mTOR/FKBP12,113 POC
same,Avg POC,Rsk1,226.5 POC
same,Avg POC,MKK6,94.5 POC
same,Avg POC,CAMK1,106 POC
same,Avg POC,MAPKAP-K2,128 POC
same,Avg POC,CDK2/cyclinA,136 POC
same,Avg POC,Axl,103.5 POC
same,Avg POC,BrSK1,118 POC
same,Avg POC,DDR2,117.5 POC
same,Avg POC,DRAK1,136 POC
same,Avg POC,p38gamma,116 POC
same,Avg POC,FGFR3,122 POC
same,Avg POC,MSK2,107 POC
same,Avg POC,GRK6,106 POC
same,Avg POC,PKCdelta,111.5 POC
same,Avg POC,PDGFRbeta,136.5 POC
same,Avg POC,PAK5,122.5 POC
same,Avg POC,IKKalpha,138.5 POC
same,Avg POC,Ros,117.5 POC
same,Avg POC,CK1gamma3,120 POC
same,Avg POC,BrSK2,143 POC
same,Avg POC,Ron,117 POC
same,Avg POC,WNK3,122 POC
same,Avg POC,IGF-1R Activated,101 POC
same,Avg POC,TrkA,2 POC
same,Avg POC,SIK,121 POC
